Assay results published in ChEMBL document CHEMBL1201862, “PubChem BioAssay data set” (2004).
Active and inactive are the calls of the source. For most assays here, no stated cut-off is given here; in the data, actives have a measured EC50 and inactives only a lower limit.

Experiments:
[1] = target: T1, Mannose-6-phosphate isomerase (Homo sapiens, UniProt P34949); assay: MPI enzyme activity inhibition – biochemical, fluorescence intensity, coupled assay, primary screen (AID 1209)
T1 sequence (P34949 whole entry): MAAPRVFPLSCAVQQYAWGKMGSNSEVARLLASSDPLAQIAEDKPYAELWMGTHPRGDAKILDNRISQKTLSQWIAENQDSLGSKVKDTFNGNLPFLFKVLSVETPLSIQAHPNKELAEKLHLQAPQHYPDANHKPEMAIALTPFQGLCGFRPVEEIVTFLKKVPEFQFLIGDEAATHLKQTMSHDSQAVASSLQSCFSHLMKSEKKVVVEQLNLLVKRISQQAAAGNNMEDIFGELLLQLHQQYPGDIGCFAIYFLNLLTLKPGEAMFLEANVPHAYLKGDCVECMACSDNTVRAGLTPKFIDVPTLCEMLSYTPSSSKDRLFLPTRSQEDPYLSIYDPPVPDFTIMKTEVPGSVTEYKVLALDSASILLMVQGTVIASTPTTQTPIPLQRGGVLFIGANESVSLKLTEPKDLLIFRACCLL

[2] = target: T1, Mannose-6-phosphate isomerase; assay: MPI inhibition at elevated mannose 6-phosphate – biochemical, fluorescence intensity, high mannose 6-phosphate, primary screen (AID 1220)
[3] = IC50 of Artemis nuclease activity blockers – biochemical, fluorescence intensity, dose response (AID 720701); assay type: functional;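 further: Artemis endonuclease enzyme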
[4] = luciferase reporter signal suppression in cells – H4 neuroglioma cells, luminescence, dose response (AID 1990); assay type: functional, cell-based
[5] = Luminescence Cell-Based Dose Response HTS to Identify Inhibitors of 5'UTR Stem-Loop Driven Prion Protein mRNA Translation in H4 Neuroglioblastoma Cells. [Related pubchem assays: 1827 (Project Summary), 1813 (Primary HTS)]; assay type: functional
[6] = alpha-synuclein stem-loop luciferase translation blockers – H4 neuroglioma cells, luminescence, confirmation (AID 1988); assay type: functional, cell-based
[7] = Trypanosoma cruzi growth suppression in host cells – NIH3T3 host cells, beta-gal luminescence, confirmation (AID 2044); assay type: functional, cell-based;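 further: intracellular parasites grown in NIH/3T3 mouse fibroblasts as host cells; luminescent beta-galactosidase reporter signal from transgenic T. cruzi replicating inside host cells; inhibitors lower the luminescence signal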
[8] = NIH3T3 cell viability loss – ATP luminescence, mouse fibroblasts, counter-screen, dose response (AID 2010); assay type: functional, cell-based;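 further: cells exposed to compound for about 90 hours before reading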
INS1 = assay: INS-1E survival protection against cytokine death – cell-based, luminescence, retest, dose response (AID 449756); assay type: functional; conditions: Rattus norvegicus;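 further: cell death triggered by IL-1 beta plus TNF-alpha plus IFN-gamma mixture; protective hits raise ATP signal compared with cytokine alone wells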
[9] = Luminescence Cell-Based Dose Response to Identify Activators of 5'UTR Stem-Loop Driven Prion Protein mRNA Translation in H4-C Neuroglioblastoma Cells. [Related pubchem assays: 1829 (Project Summary), 1814 (Primary HTS)]; assay type: functional
[10] = Luminescence Cell-Based Dose Confirmation HTS to Identify Activators of 5'UTR Stem-Loop Driven Alpha-Synuclein mRNA Translation in H4 Neuroglioblastoma Cells. [Related pubchem assays: 1829 (Project Summary), 1814 (Primary HTS)]; assay type: functional
[11] = Luminescence Cell-Based Dose Response HTS to Identify Activators of Luciferase Translation or Activity in H4 […] Cells. [Related pubchem assays: 1829 (Project Summary), 1814 (Primary HTS)]; assay type: functional
H4 = assay: Luminescence Cell-Based Dose Response HTS to Identify Activators of 5'UTR Stem-Loop Driven Prion Protein mRNA Translation in H4 Neuroglioblastoma Cells. [Related pubchem assays: 1829 (Project Summary), 1814 (Primary HTS)]; assay type: functional; conditions: Homo sapiens
[12] = Luminescence Cell-Based Dose Response to Identify Activators of Luciferase Translation or Activity in H4-C Neuroglioblastoma Cells. [Related pubchem assays: 1829 (Project Summary), 1814 (Primary HTS)]; assay type: functional
[13] = Luminescence Cell-Based Dose Confirmation to Identify Activators of 5'UTR Stem-Loop Driven Alpha-Synuclein mRNA Translation in H4 Neuroglioblastoma Cells. [Related pubchem assays: 1829 (Project Summary), 1814 (Primary HTS)]; assay type: functional
[14] = target: Mitogen-activated protein kinase 10 (Homo sapiens, UniProt P53779); assay: Dose response biochemical screening assay for inhibitors of c-Jun N-Terminal Kinase 3 (JNK3). [Related pubchem assays: 746 ]
Estrogen receptor = target: T2, Estrogen receptor (Homo sapiens, UniProt P03372);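 further: potency for inhibiting coactivator peptide recruitment to the receptor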
T2 sequence (P03372 whole entry): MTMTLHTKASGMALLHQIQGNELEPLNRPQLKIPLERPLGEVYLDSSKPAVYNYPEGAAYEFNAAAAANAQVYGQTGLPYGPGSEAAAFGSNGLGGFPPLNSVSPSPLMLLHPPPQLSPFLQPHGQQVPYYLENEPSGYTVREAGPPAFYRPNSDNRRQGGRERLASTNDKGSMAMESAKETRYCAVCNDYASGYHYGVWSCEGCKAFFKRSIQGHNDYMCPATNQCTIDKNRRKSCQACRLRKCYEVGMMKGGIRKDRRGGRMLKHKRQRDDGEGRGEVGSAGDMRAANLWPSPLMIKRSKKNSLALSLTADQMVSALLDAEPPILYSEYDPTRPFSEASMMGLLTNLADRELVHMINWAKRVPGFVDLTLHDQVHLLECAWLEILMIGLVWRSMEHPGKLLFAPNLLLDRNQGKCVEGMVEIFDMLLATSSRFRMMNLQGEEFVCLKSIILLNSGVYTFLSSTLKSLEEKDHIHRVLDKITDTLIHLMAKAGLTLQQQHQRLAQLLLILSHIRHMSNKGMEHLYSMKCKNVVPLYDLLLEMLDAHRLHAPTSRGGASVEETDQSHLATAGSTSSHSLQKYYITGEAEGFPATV

Estrogen receptor beta = Estrogen receptor beta (Homo sapiens, UniProt Q92731); assay: blockers of SRC-3 recruitment to ERβ – biochemical, ELISA, streptavidin-HRP readout, orthogonal assay, confirmation (AID 1060)
[15] = system: Streptococcus sp. 'group A'; assay: Streptococcus pyogenes SK(-)GAS viability under kanamycin – luminescence, BacTiterGlo, confirmation, counter-screen for streptokinase expression inhibitor project, dose response (AID 1900); assay type: functional, organism-based
Streptokinase A = target: T3, Streptokinase A (Streptococcus pyogenes serotype M1, UniProt P10520); assay: viability-normalized secreted streptokinase activity reduction – plasminogen activation absorbance, OD405, dose response (AID 1914); assay type: functional, Streptococcus pyogenes M1 GAS;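 further: secreted streptokinase activity via plasminogen activation per viability signal from cell pellet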
T3 sequence (P10520 whole entry): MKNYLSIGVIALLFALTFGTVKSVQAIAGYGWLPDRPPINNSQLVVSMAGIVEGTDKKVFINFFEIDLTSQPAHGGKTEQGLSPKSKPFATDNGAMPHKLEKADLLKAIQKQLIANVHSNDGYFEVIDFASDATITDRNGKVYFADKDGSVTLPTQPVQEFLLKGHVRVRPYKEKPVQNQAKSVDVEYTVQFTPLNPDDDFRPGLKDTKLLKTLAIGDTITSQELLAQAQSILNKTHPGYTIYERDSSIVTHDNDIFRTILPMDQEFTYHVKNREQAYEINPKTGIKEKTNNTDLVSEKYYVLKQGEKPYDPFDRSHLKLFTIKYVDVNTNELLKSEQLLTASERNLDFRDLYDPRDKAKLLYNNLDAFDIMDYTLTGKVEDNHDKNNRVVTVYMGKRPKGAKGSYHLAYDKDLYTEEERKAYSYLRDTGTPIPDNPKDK

Streptococcus = assay: GAS UMAA2166 growth inhibition – luminescence, BacTiterGlo, counter-screen for streptokinase expression inhibitor project, dose response (AID 1915); assay type: functional, organism-based;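 further: potency for reduction of bacterial viability or growth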

Chain of Mitogen-activated protein kinase 10 (P53779 whole entry): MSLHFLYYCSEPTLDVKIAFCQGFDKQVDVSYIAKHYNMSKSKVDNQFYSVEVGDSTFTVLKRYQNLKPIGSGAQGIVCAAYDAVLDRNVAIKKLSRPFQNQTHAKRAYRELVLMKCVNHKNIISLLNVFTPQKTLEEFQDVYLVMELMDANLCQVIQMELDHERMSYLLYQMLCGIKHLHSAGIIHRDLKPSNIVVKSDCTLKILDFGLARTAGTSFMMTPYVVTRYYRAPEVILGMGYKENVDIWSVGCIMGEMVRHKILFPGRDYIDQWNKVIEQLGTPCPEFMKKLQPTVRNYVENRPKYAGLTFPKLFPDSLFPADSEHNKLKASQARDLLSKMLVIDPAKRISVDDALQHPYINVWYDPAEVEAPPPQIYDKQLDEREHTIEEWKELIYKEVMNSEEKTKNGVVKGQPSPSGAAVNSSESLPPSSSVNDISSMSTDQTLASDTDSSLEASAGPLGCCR
Chain of Estrogen receptor beta (Q92731 whole entry): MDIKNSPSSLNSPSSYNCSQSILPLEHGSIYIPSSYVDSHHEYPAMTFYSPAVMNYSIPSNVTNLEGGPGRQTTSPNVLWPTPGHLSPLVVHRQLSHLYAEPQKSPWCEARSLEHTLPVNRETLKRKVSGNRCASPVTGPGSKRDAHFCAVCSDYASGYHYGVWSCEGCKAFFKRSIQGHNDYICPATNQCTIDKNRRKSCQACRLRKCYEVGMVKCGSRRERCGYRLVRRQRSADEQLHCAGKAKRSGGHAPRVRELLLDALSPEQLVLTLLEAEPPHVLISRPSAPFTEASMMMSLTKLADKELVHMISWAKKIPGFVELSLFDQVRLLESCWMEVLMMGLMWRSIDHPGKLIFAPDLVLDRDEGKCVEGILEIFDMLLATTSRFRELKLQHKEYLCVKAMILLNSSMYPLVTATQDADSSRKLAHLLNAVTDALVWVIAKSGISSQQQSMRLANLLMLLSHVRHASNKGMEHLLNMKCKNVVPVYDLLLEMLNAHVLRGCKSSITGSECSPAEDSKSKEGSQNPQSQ

In the case of `Cc1cc(C)c(C(N)=O)c(Nc2cccc3ccccc23)n1`, the IC50 [1] is reported as > 50 µM (not active), the IC50 [2] is reported as > 50 µM (not active) and the IC50 [3] is reported as > 20 µM (inactive).
In the case of `O=[N+]([O-])c1ccccc1-c1cc(-c2ccccc2)cc(-c2ccccc2)[n+]1Cc1ccccc1Cl.[O-][Cl+3]([O-])([O-])[O-]`, the EC50 [4] is reported as 11.3 µM (active), the EC50 [5] is reported as > 120 µM (not active) and the EC50 [6] is reported as > 120 µM (not active). The EC50 [7] was < 0.1 µM (active), the EC50 [8] was > 60 µM (not active) and the AC50 (INS1) was 2.14 µM (active). The EC50 (cells) was 0.074 µM (active).
With `C1CCC(OCCN2CCN(CCOC3CCCCC3)CC2)CC1` the EC50 [7] was < 0.1 µM (active), the EC50 [8] was > 30 µM (not active) and the EC50 (cells) was 0.067 µM (active).
With `C#CCSc1nnc(-c2ccc(OC)cc2)o1` the EC50 [9] was 3.33 µM (active), the EC50 [10] was 7.23 µM (active) and the EC50 [11] was < 0.1 µM (inconclusive). The EC50 (H4) was > 120 µM (not active), the EC50 [12] was 5.49 µM (active) and the EC50 [13] was 0.138 µM (active).
With `O=C(NCCSc1ccccc1)c1ccccc1` the EC50 [9] was 0.281 µM (active), the EC50 [11] was < 0.1 µM (inconclusive) and the EC50 (H4) was > 120 µM (not active). The EC50 [12] was 0.347 µM (active) and the EC50 [13] was 0.198 µM (active).
With `Nc1ccc(-n2c(N)c(C(=O)NCc3ccc4c(c3)OCO4)c3nc4ccccc4nc32)cc1` the IC50 [14] was > 93.1 µM (not active).
In the case of `CC(=O)C(C(C)=O)c1c(Cl)c(O)c(O)c2c(C(=O)c3ccccc3)coc12`, the IC50 [1] is reported as > 50 µM (not active) and the IC50 [2] is reported as > 50 µM (not active).
For `N#CC1=C(N)OC2=C(CCC/C2=C/c2ccoc2)C1c1ccoc1` (stereo unspecified), the IC50 (Estrogen receptor) was 10 µM (active) and the IC50 (Estrogen receptor beta) was 3.99 µM (not active).
With `Cc1ccc(N2C(=O)CC(Sc3nc[nH]n3)C2=O)cc1` (stereo unspecified) the IC50 [1] was > 50 µM (not active).
For `O=C(N/N=C/c1ccc([N+](=O)[O-])o1)c1cn(-c2ccccc2)nc1-c1ccc(F)cc1`, the EC50 [15] was 0.841 µM (active), the EC50 (Streptokinase A) was > 150 µM (not active) and the EC50 [7] was < 0.1 µM (active). For the same molecule, the EC50 [8] was > 60 µM (not active), the EC50 (Streptococcus) was 2.99 µM (active) and the EC50 (cells) was 0.03 µM (active).
